# Legend:
# [1] = target: T1, GFP-PYLcs and ABIcs localization fusion proteins (Arabidopsis thaliana, UniProt Q8VZS8); assay: ABA-induced subcellular relocalization of PYLcs fusion proteins; format: cell-based
# T1 construct: A fragment of PYL1 (aa 33-209) is fused to full length GFP or SOS; HA (from the reverse primer); expressed in transfected cells; host or cells: HEK 293 / HEK 293T
# T1 sequence (Q8VZS8 33-209): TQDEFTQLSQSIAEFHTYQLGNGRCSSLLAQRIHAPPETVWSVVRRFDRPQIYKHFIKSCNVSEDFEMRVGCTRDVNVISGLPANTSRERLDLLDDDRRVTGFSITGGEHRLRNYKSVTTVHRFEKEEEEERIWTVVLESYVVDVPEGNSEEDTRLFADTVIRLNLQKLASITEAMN
# T1 sequence (P49597 126-423 partner): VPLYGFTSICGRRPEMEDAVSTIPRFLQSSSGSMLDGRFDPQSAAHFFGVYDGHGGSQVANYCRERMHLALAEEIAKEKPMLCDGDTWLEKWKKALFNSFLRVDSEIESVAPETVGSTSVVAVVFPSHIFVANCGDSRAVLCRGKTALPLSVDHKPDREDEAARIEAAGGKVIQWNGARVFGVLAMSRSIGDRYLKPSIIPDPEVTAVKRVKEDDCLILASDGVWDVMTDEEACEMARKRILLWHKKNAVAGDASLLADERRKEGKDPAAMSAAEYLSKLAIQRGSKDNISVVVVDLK
# Procedure: (§1) A fragment of ABI1 (aa 126-423) is either fused to full length mouse Brg, full length mouse Numb, full length human CD4 or myristoylation signal. A fragment of PYL1 (aa 33-209) is fused to full length GFP or SOS. Full length SOS is fused either to myristoylation signal or three copies of FKBP12.
# (§2) Cells grown on glass coverslips were washed in phosphate-buffered saline (PBS) and fixed with 4% paraformaldehyde (PFA, prepared in PBS) at room temperature for 20 min. After three 5-min washes in PBS, the cells were permeabilized with 5% normal goat serum and 0.1% Triton X-100 in PBS at room temperature for 30 min and incubated with primary antibodies (FLAG antibody M2, Agilent, cat. #200472-21) at 4° C. overnight in the same buffer. The slides were subsequently washed three times with PBS (5 min each wash) and then incubated with Alexa fluorophore 594-conjugated secondary antibodies (Molecular Probes) for 1 hour at room temperature in the dark. Slides were washed three times in PBS for 5 min. Finally, the slides were mounted in Vectashield containing 4′,6-diamidino-2-phenylindole (DAPI; H-1500, Vector Laboratories) and imaged (63×) with a Leica DM5000B microscope.
# (§3) The area and integrated fluorescence intensity of the whole cell and the nucleus were measured with Fiji (an open-source image processing package based on ImageJ) for images from the cytoplasmic or nuclear localization experiments. The area and the integrated fluorescence intensity of the cytoplasm were calculated by subtracting the value of the nucleus from the whole cell. The mean fluorescence intensity of nucleus or cytoplasm was calculated by dividing the integrated fluorescence intensity with the area of each subcellular compartment. The ratio between nuclear or cytoplasmic distribution was calculated by comparing the corresponding mean fluorescence intensity. Twenty cells were measured in each experiment.
# (§4) The activities of proteins are often regulated by their subcellular localization. In another variation of domain reconstitution, the ability of ABA-induced proximity to control the localization of a chosen protein was tested. Fusions of ABIcs to specific subcellular localization domains were constructed and ABA was used to dimerize these ABIcs localization fusion proteins to green fluorescent protein (GFP)-fused PYLcs. The relocation of GFP-PYLcs to four subcellular locations was induced by fusing ABIcs to (i) Numb to serve as a cytoplasmic localization partner (Dho, S. E. et al. (1999) Characterization of four mammalian Numb protein isoforms: Identification of cytoplasmic and membrane-associated variants of the phosphotyrosine binding domain. J. Biol. Chem. 274, 33097-33104), (ii) to a nuclear localization sequence (NLS) or to Brg1 (Brm/SWI2-related gene 1) to serve as nuclear localization partners (Khavari, P. A. et al. (1993) BRG1 contains a conserved domain of the SWI2/SNF2 family necessary for normal mitotic growth and transcription. Nature 366, 170-174), (iii) to CD4 (cluster of differentiation 4) to serve as a plasma membrane localization partner (Sattentau, Q. J. et al. (1988) The CD4 antigen: Physiological ligand and HIV receptor. Cell 52, 631-633), or (iv) to a myristoylation (myr) sequence to serve as a plasma membrane and an intracellular membrane localization partner (Holsinger, L. J. et al. (1995) Signal transduction in T lymphocytes using a conditional allele of Sos. Proc. Natl. Acad. Sci. U.S.A. 92, 9810-9814)).
# [2] = target: T2, GFP-PYLcs and ABIcs localization fusion proteins (Arabidopsis thaliana, UniProt Q8VZS8); assay: as above; format: cell-based; conditions: NLS-ABIcs present; HEK 293T cells
# T2 construct: A fragment of PYL1 (aa 33-209) is fused to full length GFP or SOS; HA (from the reverse primer); expressed in transfected cells; host or cells: HEK 293 / HEK 293T
# T2 sequence (Q8VZS8 33-209): T1 sequence (Q8VZS8 33-209)
# T2 sequence (P49597 126-434 partner): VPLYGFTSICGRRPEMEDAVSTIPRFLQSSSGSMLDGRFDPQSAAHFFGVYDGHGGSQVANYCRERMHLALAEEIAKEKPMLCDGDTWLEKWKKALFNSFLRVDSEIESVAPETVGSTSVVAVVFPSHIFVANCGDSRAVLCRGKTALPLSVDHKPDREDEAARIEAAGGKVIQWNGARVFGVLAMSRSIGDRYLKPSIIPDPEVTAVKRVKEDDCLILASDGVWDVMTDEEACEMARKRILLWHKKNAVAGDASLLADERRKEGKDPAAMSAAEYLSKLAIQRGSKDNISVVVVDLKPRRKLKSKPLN
# Procedure: as §1, §2, §3, §4
smiles,measurement,setting,value
"CC1=CC(=O)CC(C)(C)C1(O)/C=C/C(C)=C/C(=O)O (centres unmarked) [ABA, abscisic acid]",time to relocalization of mCherry-PYLcs to Brg-ABIcs (nucleus),"[1]; 293T cells, ABA and Rap added together",≤ 30 min
same,"membrane localization of GFP-PYLcs to myr-ABIcs, specificity","[1]; 293T cells, ABA or Rap added",observed only when the matching small molecule was added
same,time to relocation of GFP-PYLcs to the nucleus or membrane,"[1]; Brg1-ABIcs or CD4-ABIcs, HEK 293T cells",≤ 30 min
same,time to cytoplasmic accumulation of GFP-PYLcs,"[1]; Numb-ABIcs, HEK 293T cells",≤ 30 min
same,redistribution of cytoplasmic Numb-GFP-PYLcs into the nucleus,[2],triggered the redistribution
